For data set [1], the system named is PK2 mRNA. As to the kind of experiment: PK2 mRNA in situ hybridization after pilocarpine-induced seizure. The format is in vivo, mice. Particulars: CeA; for PK2 mRNA induction after pilocarpine in diazepam-pretreated animals: CA3 and dentate gyrus, diazepam prior to pilocarpine. How it is done:
(§1) All injections were administered through intraperitoneal injections (i.p.) Pilocarpine: to reduce muscarinic peripheral effects, all animals injected with pilocarpine were given 2 mg/kg of methylscopolamine (dissolved in saline 0.4 mg/ml) 30 minutes prior to injection. Pilocarpine-induced seizure was then initiated by injecting littermate mice (C57BL-6 or mix C57BL-6 with CD1) i.p. with (200 or 400 mg/kg) pilocarpine, respectively. Thereafter, animals were then assessed for seizure, as describe above, and sacrificed according to the following time course (30, 1 hr, 3 hrs, 6 hrs, 12 hrs, 36 hrs, 72 hrs). For groups within the pentylenetetrazol (metrazol, PTZ), mice were administered 75 mg/kg PTZ and subsequently monitored for 20 minutes. PTZ kindling were accomplished by administering 45 mg/kg PTZ every other day for 14 days. Animals that reach S5 on the first day were not included in the experiments. Each animal was injected and monitored for S5 seizure. Once S5 is reached, the animal was considered kindled, and was taken out of the injection regimen.
In situ hybridization was done according to Cheng et al 2001. Antisense and sense riboprobes containing the 3′ UTR of mouse PK2 (GenBank accession number AF487279; residues 1147-2211), PKR1 (3′ UTR) and PKR2 (3′ UTR) were generated. […] Sections were then cut at 20-μm and processed for in situ as described by Winzer-Serhan et al. mRNA distributions from autoradiograms and emulsion-dipped sections were then analyzed and quantified with a system called MCID (Imaging Research). Calibration curve was generated by optical density versus radioactivity (disintegrations per minute (d.p.m.) per mg tissue wet weight) using 14 C standards. […]
A time course analysis for PK2 mRNA induction and upregulation in the pilocarpine-induced seizure model was performed. A total of seven time points (30 minutes, 1 hr, 3 hrs, 6 hrs, 12 hrs, 36 hrs, and 72 hrs post pilocarpine injection) were analyzed. […]

Data set [2] deals with PKR2 mRNA. The experiment in a line: PKR2 mRNA in situ hybridization after pilocarpine-induced seizure. The format is in vivo, mice. How it is done:
as §1, with “Animals that reach S5 on the first day were not included in the experiments.” left out, “Once S5 is reached, the animal was considered kindled, and was taken out of the injection regimen.” left out
(§2) In situ hybridization was done according to Cheng et al 2001. […] Sections were then cut at 20-μm and processed for in situ as described by Winzer-Serhan et al. mRNA distributions from autoradiograms and emulsion-dipped sections were then analyzed and quantified with a system called MCID (Imaging Research). Calibration curve was generated by optical density versus radioactivity (disintegrations per minute (d.p.m.) per mg tissue wet weight) using 14 C standards. […]

The test system of data set [3] is PK2 mRNA. As to the kind of experiment: PK2 mRNA in situ hybridization in PTZ seizure model. The format is in vivo, mice. Particulars: data not shown. As for the experimental part: as §1, with “Animals that reach S5 on the first day were not included in the experiments.” left out, “Once S5 is reached, the animal was considered kindled, and was taken out of the injection regimen.” left out
as §2

Data set [4] deals with brain infarct in experimental stroke model. The experiment in a line: Experimental stroke model, infarct volume after i.p. compound I. The format is in vivo, rats. To be noted: 50 mg/kg i.p., 30 minutes pre-ischemia; n=5, p<0.05; listed as compound I. How it is done:
TTC staining and infarct quantification was performed as follows. 24 hours after reperfusion, rats were perfused with ice cold PBS and the brain was sectioned into 2 mm thickness. Brain sections were stained in 2,3,5 triphenyl tetrazolium chloride (TTC) solution for 15 minutes or until infarct was visible, followed by fixation with 4% PFA overnight. Next day the brain sections were aligned from rostral to caudal and brain sections were scanned. Infarct size and volume was quantitated using the software Image J. Infarct and cortex was outlined and measured using Image J. Percent infarct represents infarct area over entire cortex area. Percent volume was measured by multiplying the area by the section thickness (2 mm). Compound I reduced infarct size in ischemia models. The effect of compound I in experimental stroke models was tested. […] Compound I-treated rats had smaller infarct at almost every level.

A short description of data set [5]: Pharmacokinetic study, brain concentration. Format: in vivo. To be noted: intraperitoneal injection of 60 mg/kg in rats. As for the experimental part:
(§3) Via custom synthesis, 10 grams of one of the morpholine carboximide derivatives was obtained, with chemical name of (±)-4-Benzyl-N-(3,4-dihydro-2H-1,5-benzodioxepin-7-ylmethyl)-N-isobutylmorpholine-2-carboxamide, compound I (FIG. 5). Compound I was tested using the in vitro ischemia model. […] We utilized compound I as a parent compound to test the potential therapeutic effect of blocking PKR2 in cerebral ischemia models.

In data set [6] the target is T1, PKR2 (Homo sapiens, UniProt Q8NFJ6).
T1 construct: expressed in transfected cells
As to the kind of experiment: Antagonism of PK2-induced calcium influx (luminescence) in CHO cells stably expressing PKR2. Format: cell-based. Particulars: luminescence (RLU), read-out: inhibition constant (Ki) for blocking activation of PKR2 by PK2. How it is done: FIG. 4 is a graphical representation showing the antagonistic effect of Compound I in Chinese Hamster Ovary cells that stably express PKR2. Dose-dependent response of PKR2 activation by PK2 in the presence of different concentrations of Compound I was measured with a luminometer. RLU is an index for calcium influx measurement for this luminescence-based assay. The dose-dependent calcium influx activated by PK2 was antagonized by Compound I. The inhibition constant obtained from this experiment was approximately 15 nM.
as §3

Data set [7] deals with brain infarct after distal MCAO. As to the kind of experiment: Distal MCAO experimental stroke with ICV delivery of PK2, TTC infarct quantitation. Format: in vivo, rats. Particulars: PK2 0.3 nmol ICV within one hour after reperfusion, 24 hr, n=5, p<0.001. How it is done: Distal Middle Cerebral Artery Occlusion (dMCAO) was performed in the PK2 intracerebroventricular […] infusion study. Anesthesia induced by 5% isoflurane and maintained by 2-3% isoflurane. A ventral midline incision was made, and the two CCAs were isolated. […] were placed around the CCAs, and the animal was placed on its right side. A 2-cm vertical scalp incision was made midway between the left eye and ear. The temporalis muscle was bisected and a 2-mm burr hole was made at the junction of the zygomatic arch and squamous bone to expose the distal MCA. The dura was cut and the distal MCA was permanently electro-cauterized. The CCA were then occluded with clips for 1 hour, and the animals were sacrificed and perfused after 24 hr. PK2 (0.3 nmol) was stereotaxically infused prior or post-ischemia. […] Body temperature, ECG, and respiration rate were monitored every 15 minutes and kept in physiological ranges. […] TTC staining and infarct quantification was performed as follows. […] Infarct size and volume was quantitated using the software Image J. Infarct and cortex was outlined and measured using Image J. Percent infarct represents infarct area over entire cortex area. Percent volume was measured by multiplying the area by the section thickness (2 mm). […] FIGS. 2B and C are graphs showing quantitation of infarct volume. […]

In data set [8] the test system is GABA (α1β1γ2) currents in oocytes with PKR2. The experiment in a line: GABA-evoked currents in Xenopus oocytes, two-electrode voltage clamp. Format: cell-based, Xenopus laevis. Particulars: GABA 10 uM; PK2 10 nM-30 nM; over 60 min; holding potential -70 mV. How it is done:
FIG. 13 is a series of graphical representations showing PK2-induced reduction of GABA (α1β1γ2) currents. […] GABA (10 uM) evoked GABA currents without PK2 show no appreciable reduction over a 70 min course. Addition of PK2 (10 nM-30 nM) decreased GABA-evoked current over a period of 60 min. FIG. 13B is a graphical representation showing the average percent reduction of normalized GABA-evoked currents after addition of PK2. […] One-way Anova with post-Dunnet correction indicates (p<0.05) across all time points when compared to normalized base.
Multiple studies have found a complex system of inhibition, disinhibition, and various physiological consequences, depending on the circuitry and subtypes involved; all of which have important consequences in epileptogenesis. The role of PK2 and GABAA receptor, especially with the αβγ-GABAA which are found in the amygdale was investigated. […]. To do this study, a mixture of RNA containing α1β1γ2S with or without PKR2 was injected into Xenopus oocytes. GABA currents were then measured using the two-electrode voltage clamp with a holding potential of −70 mV, 4-6 days post injection. Repeated exposure (every 10 mins) with GABA (10 μM) to Xenopus oocytes (αβγ-GABAA or […] containing) induced a reproducible and stable current over a long-term recording (>1 hr).
(Two-electrode voltage clamp holds a large cell at a set potential and records current.)

The test system of data set [9] is locomotor running wheel activity. Particulars: PK2 0.3 nmol; cited from earlier work.

Entries after “also recorded” stand apart in the source; their conditions may differ.

T1 sequence (Q8NFJ6 whole entry): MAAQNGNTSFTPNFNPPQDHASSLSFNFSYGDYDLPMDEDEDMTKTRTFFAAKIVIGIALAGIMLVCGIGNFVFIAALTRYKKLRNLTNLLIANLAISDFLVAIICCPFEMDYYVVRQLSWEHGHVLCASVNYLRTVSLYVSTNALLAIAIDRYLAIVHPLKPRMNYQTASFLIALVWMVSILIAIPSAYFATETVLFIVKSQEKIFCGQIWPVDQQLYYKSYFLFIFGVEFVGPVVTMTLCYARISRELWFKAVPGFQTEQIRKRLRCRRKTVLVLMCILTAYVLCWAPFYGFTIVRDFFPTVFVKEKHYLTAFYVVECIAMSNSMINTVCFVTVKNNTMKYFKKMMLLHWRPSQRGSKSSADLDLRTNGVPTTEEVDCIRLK

Consider `CC[C@@H]1C(=O)OC[C@@H]1Cc1cncn1C` [pilocarpine], for which the “peak PK2 mRNA induction over basal level” value in data set [1] (6 hr post pilocarpine injection) is “over 100 fold”. In data set [2] (CA1/CA2, 6 hr post pilocarpine injection), the “peak PKR2 mRNA induction over basal level” value is recorded as “about 7 fold”.
Take `C1CCc2nnnn2CC1` [PTZ, Pentylenetetrazol]: in data set [3], the “PK2 mRNA induction in PTZ seizure model” value was “only a modest upregulation of PK2 mRNA at the medial nucleus of the amygdale”.
For `CN1C(=O)CN=C(c2ccccc2)c2cc(Cl)ccc21` [Diazepam, diazepam], the “PK2 mRNA induction after pilocarpine in diazepam-pretreated animals” value is “eliminated induction; also recorded: blocks induction of PK2” in [1] and “completely abolished” in [1] (listed as diazepam). For the same molecule, the “PKR2 mRNA induction after pilocarpine with diazepam” value in data set [2] (seizure activity blocked with diazepam) was “eliminated induction”.
Usually Ki stands for a measure of affinity in units of concentration, obtained from inhibition or displacement. Consider `CC(C)CN(Cc1ccc2c(c1)OCCCO2)C(=O)C1CN(Cc2ccccc2)CCO1` (racemic) [Compound I, (±)-4-Benzyl-N-(3,4-dihydro-2H-1,5-benzodioxepin-7-ylmethyl)-N-isobutylmorpholine-2-carboxamide], for which, in data set [4], the “infarct volume versus vehicle PEG400” value was “significantly reduced infarct volume”. The brain concentration entry in data set [5] is “significant brain concentration”. Also, the Ki in data set [6] is about 15 nM.

B1: PK2: secreted peptide ligand of G-protein coupled receptors PKR1 and PKR2 (protein, UniProt Q9HC23 28-129, looked up)
Prokineticin-2: AVITGACDKDSQCGGGMCCAVSIWVKSIRICTPMGKLGDSCHPLTRKNNFGNGRQERRKRKRSKRKKEVPFFGRRMHHTCPCLPGLACLRTSFNRFICLAQK
As for B1, the “infarct volume versus saline” value in data set [7] is on record as “significantly increased overall average infarct volume”. The “maximum inhibition of GABA-evoked currents” value in [8] is reported as 75 % of normalized baseline. Further, the “duration of inhibitory response in locomotor running wheel activity” value in data set [9] is 3 to 5 h.

(Values after patent US8101158B1, “Methods for treating cerebrovascular disease comprising administering an agent that inhibits prokineticin receptor activity” (The Regents of the University of California, priority 2007, dated 2012).)
